Laboratory results taken from US12708676B2, “Phosphate compounds for detecting neurological disorders” (Amydis, Inc., priority 2018, dated 2026).
Converted amounts (≈) assume the structure as drawn. Read-outs that look alike come from different tables or passages of the source.

Key:
[1] = Solubility of Compound 7 in various media; type: physicochemical
Method: The physical properties of Compound 7 were determined.

[2] = Rabbit pharmacokinetics of Compound 9, Study 1 (retina, brain, blood); type: in vivo; conditions: for concentration at 15 min / concentration at 30 min / concentration at 60 min: Study 1, 30 mg Compound 9 injected
Method: (§1) Compound 9 was injected into rabbits as a solution in 0.1 M phosphate buffer, pH 7.4 such that rabbits received either 30 mg of Compound 9 (Study 1) or 28 mg of Compound 9 (Study 2). The purpose of these studies was to confirm that Compound 9 could easily be converted into Compound 7 in vivo.
Study 1: Rabbits received a 1.5 mL injection of a 20 mg/mL solution of Compound 9 in 0.1 M phosphate buffer, pH 7.4. Rabbits were sacrificed at the specified time points (N=3 per time point) in the tables below and the average concentration of Compound 9 and Compound 7 was determined in the retina (Table 3), brain (Table 4) and blood (Table 5).

[3] = Rabbit pharmacokinetics of Compound 9, Study 2 (retina, brain, blood/plasma); type: in vivo; conditions: rabbit
Method: as §1
Study 2: The purpose of this study was to determine if higher concentrations of Compound 9 and/or Compound 7 was present at earlier time points in the tissues specified. Rabbits received a 1.4 mL injection of a 20 mg/mL solution of Compound 9 in 0.1 M phosphate buffer, pH 7.4. Blood was collected from rabbits (N=6) two minutes after receiving Compound 9 to determine the blood concentration at this time point (Table 8). Rabbits were then sacrificed at the specified time points (N=3 per time point) in the tables below and the average concentrations of Compound 9 and Compound 7 were determined in the retina (Table 6), brain (Table 7) and blood (Table 8).

[4] = target: aggregated Aβ (Homo sapiens, UniProt P05067); assay: Fluorescent detection of Aβ in vitro; type: binding
[5] = tested on: Aβ40; assay: Example 8: in vivo retinal imaging and ex vivo IHC of APPSwDI, PSAPP and wild type mice; set-up: species or system mouse; conditions: PSAPP mouse
[6] = target: amyloid deposits associated with CAA (Homo sapiens, UniProt P05067); assay: Example 8: ex vivo staining of human CAA brain tissue; type: binding
Excerpt: Post-mortem brain tissue from patients diagnosed with CAA were examined to de-risk the translation from the limited robust preclinical animal models to humans. This study was designed to understand the fundamental basis of fluorescently detecting amyloids using human tissue. […] Human CAA brain tissue and healthy control brain tissue was acquired (University of California, San Diego, CA). […] All CAA patients were female and ranged in age from 70-93 years. Control brains were obtained from cognitively normal patients that ranged in age from 82-94 years from both male and female donors.

[7] = target: α-syn deposits (Homo sapiens, UniProt P37840); assay: Example 9: retinal imaging of Line 61 Parkinson's Disease Tg mouse model; type: in vivo
Excerpt: Two transgenic mouse models of Parkinson's Disease (D-line and Line 61) were examined for retinal α-syn deposits. The models selected produce α-syn deposition in the brain, but to date production in the retina had not been determined. […] After live imaging, mice were sacrificed, and the brain and retina were harvested for immunofluorescence and biochemistry.
Accordingly, Line 61 model manifest retinal α-syn in ~30% of mice and was useful in showing the utility of the disclosed compounds. […] Brain tissue was extracted post-mortem from mice after the last imaging session and stained with DAPI and a SYN1 antibody confirming the presence of α-syn in the Line 61 Mouse brain.
To confirm objects detected in vivo were α-syn, retinal tissue was extracted post-mortem from mice after the last imaging session and stained with DAPI and a SYN1 antibody (FIG. 11).

[8] = target: alpha-synuclein (Homo sapiens, UniProt P37840); assay: Example 9: ex vivo flatmount staining of human retinas with Compound 7 and SYN-1 Ab; type: binding; conditions: for Average No. of co-stained objects / Average No. of singly-stained objects: PD retina, per ~250,000 μm^2 area; for Average No. of co-stained objects: co-stained with SYN-1; for Co-localization with alpha-synuclein (SYN-1 Ab): 60 μM Compound 7
Method: To understand if Compound 7 (active drug) can detect retinal α-syn in human eyes, human retinal tissue was extracted post-mortem from both a healthy patient and a patient diagnosed with Parkinson's Disease, and stained with Compound 7, DAPI and a SYN1 antibody.
Eye dissection: Cornea, iris and lens were removed from the eye cup and the eye placed into 4% PFA for 1 hour. […] The different regions were mounted on separate slides.
Flatmount retinal staining: The tissue was fixed in room temperature 4% PFA for 20 minutes, washed, permeabilized, blocked (2.5% goat serum in PBST), stained with Alpha-synuclein antibody (SYN-1) at a dilution of 1:1000 and incubate overnight at 4° C., washed with PBST (3 times for 5 minutes), incubated with secondary antibody (Alexa fluor 647 anti-mouse) in dark for 1 hr at RT. The tissue was then washed with PB ST (3 times for 5 minutes), incubated with 60 μM Compound 7 for 30 minutes at RT, washed with PBS (3 times for 10 minutes), incubate with DAPI (300 nM or 100 ng/mL) in dark for 10 minutes, and washed with PBS (3 times for 5 minutes). The tissue was then mounted using antifade DAKO mounting media.
To determine the number of objects co-stained with Compound 7 and SYN1, the average number of objects co-stained with Compound 7 and SYN1 was quantified. This was completed for each quadrant of both the left and right eye (Table 10 and Table 11).

[9] = target: Aβ plaques (Homo sapiens, UniProt P05067); assay: Example 7: ex vivo staining of human Alzheimer's disease tissue, co-localization with 6E10
[10] = blood, other: injection (site not specified), read-out: Avg Conc., blood
[11] = retina, other: injection (kind of injection not stated), read-out: Avg Conc., retina
[12] = brain, other: injection (site or type of injection not stated), Study 2, 28 mg Compound 9 injected, read-out: Avg Conc., brain
[13] = plasma, other: injection (site not specified), Study 2, 28 mg Compound 9 injected, read-out: Avg Conc., plasma
[14] = retina, other: injection (site not stated), Study 2, 28 mg Compound 9 injected, read-out: Avg Conc., retina

amyloid deposits associated with CAA, sequence (P05067 672-711 limits assumed): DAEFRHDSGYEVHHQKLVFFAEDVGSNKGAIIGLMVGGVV
Aβ plaques, sequence (P05067 672-713 limits assumed): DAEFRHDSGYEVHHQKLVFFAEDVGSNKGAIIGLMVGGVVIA
aggregated Aβ, sequence (P05067 672-711 limits assumed): as the sequence (P05067 672-711 limits assumed) above

Which results are given for N#C/C(=C\c1ccc2cc(N3CCCCC3)ccc2c1)C(=O)NCCOCCOCCO [Compound 7, (E)-2-cyano-N-(2-(2-(2-hydroxyethoxy)ethoxy)ethyl)-3-(6-(piperidin-1-yl)naphthalen-2-yl)acrylamide]?
solubility ([1]; SGF, simulated gastric fluid): 3600 µg/mL (≈ 8230 µM); solubility ([1]; castor oil, oil or lipid): > 9000 µg/mL; solubility ([1]; n-octanol, organic solvent or mixture): > 8000 µg/mL; solubility ([1]; pH 4.0 buffer, pH 4, aqueous buffer): 70 µg/mL (≈ 160 µM); solubility ([1]; pH 7.0 buffer, pH 7, aqueous buffer): 4.6 µg/mL (≈ 10.5 µM); solubility ([1]; pH 7.4 buffer, pH 7.4, aqueous buffer): 3.3 µg/mL (≈ 7.54 µM); solubility ([1]; pH 9.0 buffer, pH 9, aqueous buffer): 4.8 µg/mL (≈ 11 µM); solubility ([1]; water): 1.7 µg/mL (≈ 3.89 µM); Kp,brain by 30 minutes ([2]; 30 minutes after injection of Compound 9): significantly decreased to undetectable values; concentration at 15 min [2, 10]: 217 ± 31.2 ng/mL; concentration at 30 min [2, 10]: 9.41 ± 1.89 ng/mL; concentration at 60 min [2, 10]: 2.1 ± 2.43 ng/mL; concentration at 15 min ([2]; brain, other: injection (site not specified), read-out: Avg Conc., brain): 0.987 ± 0.273 ng/g; Circulation time in the retina ([2]; levels significantly decreasing over an hour): relatively short; concentration at 15 min [2, 11]: 10.1 ± 7.3 ng/g; concentration at 30 min [2, 11]: 2.13 ± 1.71 ng/g; concentration at 60 min [2, 11]: 0.779 ± 0.325 ng/g; concentration at 5 min [3, 12]: 316 ± 91.6 ng/g; concentration at 10 min [3, 12]: 68.1 ± 8.86 ng/g; concentration at 2 min ([3]; plasma, other: injection (site not specified), Study 2, 28 mg Compound 9 injected, 2 min, read-out: Avg Conc., plasma): 1480 ± 409 ng/mL; concentration at 5 min [3, 13]: 975 ± 317 ng/mL; concentration at 10 min [3, 13]: 251 ± 13.9 ng/mL; Time at which Kp,brain was highest ([3]; post-dose of Compound 9): 5 min; Delivery past the blood brain barrier and into retinal tissue ([3]; via administration of Compound 9 diammonium salt): delivered past the blood brain barrier (BBB) and, more importantly, into retinal tissue; concentration at 5 min [3, 14]: 682 ± 119 ng/g; concentration at 10 min [3, 14]: 183 ± 152 ng/g; concentration at 5 min ([3]; retina, Study 2, 28 mg Compound 9 injected, read-out: Avg Conc., retina): 682 ng/g; Detection of aggregated Aβ in vitro [4]: demonstrated the ability to detect aggregated Aβ; Labelling in brain sections, ex vivo IHC ([5]; 15 minutes after iv Compound 10): labeling of amyloid plaques with Compound 7 and 6E10; Co-localization with 6E10 in retina, ex vivo IHC ([5]; labelling from in vivo injection of Compound 10): co-localization of Compound 7 with 6E10; Staining ([6]; healthy control human brains): absent; Staining of amyloid deposits ([6]; human CAA brains): successfully stains amyloid deposits associated with CAA; Specificity for α-syn deposits ([7]; Line 61 model, via administration of Compound 10): specific for α-syn deposits associated with Parkinson's Disease; Co-localization with SYN1 ([7]; brain and retinal tissue of Tg mice): co-localizes with an anti-alpha-synuclein antibody (SYN1); Average No. of co-stained objects ([8]; left eye, Inferior): 13.6; Average No. of singly-stained objects ([8]; left eye, Inferior): 0.87; Average No. of co-stained objects ([8]; left eye, Nasal): 13; Average No. of singly-stained objects ([8]; left eye, Nasal): 0.75; Average No. of co-stained objects ([8]; left eye, Superior): 20; Average No. of singly-stained objects ([8]; left eye, Superior): 0.25; Average No. of co-stained objects ([8]; left eye, Temporal): 12.37; Average No. of singly-stained objects ([8]; left eye, Temporal): 0.5; Average No. of co-stained objects ([8]; right eye, Inferior): 12.12; Average No. of singly-stained objects ([8]; right eye, Inferior): 0.75; Average No. of co-stained objects ([8]; right eye, Nasal): 14.3; Average No. of singly-stained objects ([8]; right eye, Nasal): 1.75; Average No. of co-stained objects ([8]; right eye, Superior): 16; Average No. of singly-stained objects ([8]; right eye, Superior): 0.5; Average No. of co-stained objects ([8]; right eye, Temporal): 11.62; Average No. of singly-stained objects ([8]; right eye, Temporal): 0.5; Co-localization with alpha-synuclein (SYN-1 Ab) ([8]; post-mortem retinas of healthy human patient): very little or no co-localization; Co-localization with alpha-synuclein (SYN-1 Ab) ([8]; post-mortem retinas of human PD patient): co-localization of Compound 7 and Alpha-Synuclein deposits (SYN-1 Ab) in all regions; Binding to Aβ plaques in human tissue ([9]; brain and retinal tissue of human Alzheimer's patients): bind to Aβ plaques in both brain and retinal tissue; Detection of aggregated Aβ ex vivo ([9]; ex vivo, human Alzheimer's brain tissue): demonstrated the ability to detect aggregated Aβ
